Tests used:
Assay type in all cases: cell-based, human
[1] = system: monocyte transmigration across HBMEC; assay: Monocyte transmigration assay across HBMEC
GPR4 mRNA [2] = assay: RT-PCR of GPR4 mRNA in HBMEC; conditions: within 2 hours, TNF-α 100 U/ml or H2O2
GPR4 mRNA [3] = assay: RT-PCR of GPR4 mRNA in HMEC; conditions: within 2 hours, TNF-α 100 U/ml or H2O2

Row | Compound | effect on basal monocyte transmigration [1] | inhibition of LPC-induced monocyte transmigration [1] | GPR4 mRNA over control (GPR4 mRNA [2]) | GPR4 mRNA over control (GPR4 mRNA [3])
1 | C3 transferase | did not change basal monocyte transmigration | about 65% | – | –
2 | OO [H2O2] | – | – | increased GPR4 mRNA over control | not HMEC
3 | TNF-α | – | – | increased GPR4 mRNA over control | not HMEC

From patent US20060067931A1, “Receptor for lysophosphatidylcholine in vascular endothelial cells and use thereof” (priority 2004, published 2006)
